Results on one compound are retold here after patent publication US6165984A, “Naringin and naringenin as inhibitors of acyl CoA-cholesterol-o-acyltransferase” (Korea Institute of Science & Technology, priority 1997, dated 2000).

Data set [1] deals with macrophage-lipid complex on the arterial endothelium. Put plainly: Fatty streak analysis: macrophage-lipid complex on main artery of cholesterol-fed rabbits (Example 6). The class given is in vivo, New Zealand White rabbit. The conditions noted are these: 1 mg/kg Lovastatin. An excerpt:
RC4 diet comprises 7.6% moisture, 22.8% crude protein, 2.8% crude fat, 8.8% crude ash, 14.4% crude cellulose and 43.6% soluble nitrogen-free substances. The rabbits were bred for 6 weeks while being allowed free access to the diets and water. The rabbits bred in (Step 1) were sacrificed and their chest were incised. The main artery was cut out therefrom in a length of about 5 cm downward from the site 1 cm above the aortic valve and the fat surrounding the main artery was removed. The main artery was incised in the middle along the longitudinal axis and pinned to a dish. The moist artery was photographed and, then, staining of fatty streak was carried out in accordance with the method of […]., et al. (J. Lab. Clin. […] A part of the incised main artery was washed three times by 2 min. with anhydrous propylene glycol and stained for 30 min. with a saturated solution of Oil Red O (ORO, Sigma Co.) dissolved in propylene glycol. Thereafter, the artery was washed twice by 3 min. with 85% propylene glycol to remove remaining staining solution and, then washed with physical saline. The artery was photographed and the photograph was traced. The area of stained region (fatty streak region) was determined with an image analyzer (LEICA, Q-600, Germany) and its proportion (%) to the total arterial area was calculated. On the other hand, the other part of the main artery was stained in accordance with hematoxylin-eosin (H&E) and Masson's trichrome staining methods and observed under a microscope to confirm whether the macrophage-lipid complexes were accumulated in the intima, internus, elastic lamina and media.

The nature of data set [2]: Blood total cholesterol and triglyceride in cholesterol-fed rabbits (Example 6). The following applies: 1% cholesterol diet, 6 weeks, 1 mg/kg Lovastatin, 0.1% naringin or naringenin. The class given is in vivo, New Zealand White rabbit. The procedure: Blood samples were taken from the rats of the three dietary groups and plasma HDL fractions were separated therefrom by using HDL-cholesterol reagent (Sigma Chemical Co., Cat. No. 352-3) containing dextran-sulfate. Total cholesterol and HDL-cholesterol levels were determined by using Sigma Diagnostic Kit Cat. No. 352-100(Sigma Chemical Co., […] et al., Clin. Chem., 20, 470-475(1974)). Neutral lipid level was determined by using Sigma Diagnostic Kit Cat. No. 339-50(Bucolo, G. and David, H., Clin. Chem., 19, 476-482(1973)). The result is shown in Table III, wherein the total plasma cholesterol levels in naringin and naringenin-fed rat groups decreased by 32% and 18%, respectively, as compared with that of the control group. […] RC4 diet comprises 7.6% moisture, 22.8% crude protein, 2.8% crude fat, 8.8% crude ash, 14.4% crude cellulose and 43.6% soluble nitrogen-free substances. The rabbits were bred for 6 weeks while being allowed free access to the diets and water. Further, blood samples were taken from the rabbits and total cholesterol and triglyceride levels were determined in accordance with the same procedure in Example 4.

Another data set deals with hepatic cells. The following applies: rabbits, 1% cholesterol diet, six weeks; 1 mg/kg Lovastatin, 0.1% naringin. The procedure: The same procedure as in (Step 1) was repeated except that 30 three-month old New Zealand White rabbits (Yeonam Horticulture and Animal Husbandry College, Korea) each weighing about 2.5 to 2.6 kg were used in place of the rats, and the rabbits were fed for six weeks with three different diets, i.e., RC4 diet containing 1% cholesterol (Control group); 1% cholesterol plus 1 mg/kg Lovastatin® (Comparative group); and 1% cholesterol plus 0.1% naringin, respectively.
Thereafter, the livers were separated from the rabbits and the histopathological observations were carried out as follows.
The rabbits were anesthetized with an intramuscular injection of ketamine (75 mg/kg) and subjected to an abdominal incision. […] The fixed liver was washed sufficiently with water, dehydrated stepwise with 70%, 80%, 90% and 100% ethanol and, then, embedded in paraffin. The embedded liver was sectioned in 4 μm thickness with a microtome and stained with hematoxylin and eosin. The stained liver specimen was made transparent with xylene, mounted with permount, and then observed under a microscope to confirm the presence of lesions.

Data set [3] has as its system creatin kinase in the liver. The following applies: in vivo; cited from earlier work.

In the case of `CC[C@H](C)C(=O)O[C@H]1C[C@@H](C)C=C2C=C[C@H](C)[C@H](CC[C@@H]3C[C@@H](O)CC(=O)O3)[C@H]21` [Lovastatin, reference compound], the “layer of macrophage-lipid complex on the arterial endothelium (FIGS. 1A-1C)” value in data set [1] (0.1% naringin, control: thick layer) is “no or very thin layers of macrophage-lipid complex”. Besides, the “area of macrophage-lipid complex accumulated on the arterial endothelium, compared to control group” value in data set [1] (1% cholesterol diet, 6 weeks, 0.1% naringin or naringenin) is listed as “decreased significantly”. In data set [1] (proportion of total arterial area, 1% cholesterol diet, 6 weeks, 0.1% naringin or naringenin, control 35), the “M-L (macrophage-lipid) complex area” value is on record as 5%. Besides, in data set [2] (control 56), the Triglyceride worked out at 66 mg/dL. In data set [2] (control 1143), this compound returned a Total cholesterol of 1210 mg/dL. Besides, the “microscopic features of the liver (FIGS. 2A-2C)” value in the data set with hepatic cells was “irregularly arranged and enlarged and a large amount of fat is deposited therein”. In addition, the adverse side effect result in data set [3] is reported as “increasing creatin kinase in the liver”.
